From patent US12180252B2, “Peptide derived from PEP27 peptide and uses thereof” (priority 2021, dated 2024)
≈ marks a conversion by molar mass, not a printed value. Where two headings read alike, the source gives them in different places. Where a SMILES comes first, the peptide text is derived from it.

Experiments:
P. aeruginosa 4007 = assay: microbe, parasite or virus in culture; conditions: for MIC: Pseudomonas aeruginosa, 4007, 18 h, read-out: Minimal inhibitory concentration
Description: (§1) In order to evaluate the antimicrobial activity of the peptides prepared by the method of above 1, a minimal inhibitory concentration (MIC) value as the minimum concentration of a peptide, in which cells are not divided, was measured.
(§2) Specifically, the strains shown in Table 3 below were purchased, cultured in a medium having a constitutional composition suitable for each strain to a mid-log phase, and then diluted to a concentration of 2×10^4 cells/100 μl to prepare the product on a micro-titration plate (Nunc, USA). Then, PEP27, PEP27-1, PEP27-2 or PEP27-5 peptide synthesized in the above 1 was added to each well by serial dilution ½ times, followed by incubation at 37° C. for 18 hours.
(§3) Specifically, subject strains were prepared by the method of above 2, and were treated with the antibiotics, that is, meropenem, ceftazidime, ceftriaxone or vancomycin, respectively, followed by determining MICs of the antibiotics.

P. aeruginosa 4891 = assay: microbe, parasite or virus in culture; conditions: for MIC: Pseudomonas aeruginosa, 4891, 18 h, read-out: Minimal inhibitory concentration
Description: as §1, §2, §3

P. aeruginosa ATCC15692 = assay: microbe, parasite or virus in culture; conditions: ATCC15692, 18 h; for MIC: Pseudomonas aeruginosa, read-out: Minimal inhibitory concentration
Description: as §1, §2, §3

P. aeruginosa ATCC27853 = assay: microbe, parasite or virus in culture; conditions: ATCC27853, 18 h; for MIC: Pseudomonas aeruginosa, read-out: Minimal inhibitory concentration
Description: as §1, §2, §3

S. aureus ATCC25923 = assay: microbe, parasite or virus in culture; conditions: ATCC25923, 18 h; for MIC: Staphylococcus aureus, read-out: Minimal inhibitory concentration
Description: as §1, §2, §3

S. aureus ATCC29213 = assay: microbe, parasite or virus in culture; conditions: ATCC29213, 18 h; for MIC: Staphylococcus aureus, read-out: Minimal inhibitory concentration
Description: as §1, §2, §3

S. aureus CCARM3089 = assay: microbe, parasite or virus in culture; conditions: for MIC: Staphylococcus aureus, CCARM3089, 18 h, read-out: Minimal inhibitory concentration
Description: as §1, §2, §3

S. aureus CCARM3090 = assay: microbe, parasite or virus in culture; conditions: for MIC: Staphylococcus aureus, CCARM3090, 18 h, read-out: Minimal inhibitory concentration
Description: as §1, §2, §3

S. aureus CCARM3518 = assay: microbe, parasite or virus in culture; conditions: for MIC: Staphylococcus aureus, CCARM3518, 18 h, read-out: Minimal inhibitory concentration
Description: as §1, §2, §3

S. aureus MW2 = assay: microbe, parasite or virus in culture; conditions: for MIC: Staphylococcus aureus, MW2, 18 h, read-out: Minimal inhibitory concentration
Description: as §1, §2, §3

S. aureus USA300 = assay: microbe, parasite or virus in culture; conditions: for MIC: Staphylococcus aureus, USA300, 18 h, read-out: Minimal inhibitory concentration
Description: as §1, §2, §3

B. subtilis KCTC1998 = type: cell-based, Bacillus subtilis; conditions: KCTC1998, 18 h
Description: as §1, §2

L. monocytogens KCTC3710 = type: cell-based, Listeria monocytogenes; conditions: KCTC3710, 18 h
Description: as §1, §2

E. coli ATCC25922 = type: cell-based, Escherichia coli; conditions: ATCC25922, 18 h
Description: as §1, §2

E. coli ATCC27325 = type: cell-based, Escherichia coli; conditions: ATCC27325, 18 h
Description: as §1, §2

E. coli CCARM1229 = type: cell-based, Escherichia coli; conditions: E. coli CCARM1229, antibiotics-tolerant; 37° C., 18 hours
Description: as §1, §2

E. coli CCARM1238 = type: cell-based, Escherichia coli; conditions: E. coli CCARM1238, antibiotics-tolerant; 37° C., 18 hours
Description: as §1, §2

[1] = system: Sa. typhimurium CCARM8007; type: cell-based, Salmonella typhimurium; conditions: Sa. typhimurium CCARM8007, antibiotics-tolerant; 37° C., 18 hours
Description: as §1, §2

[2] = system: Sa. typhimurium CCARM8009; type: cell-based, Salmonella typhimurium; conditions: Sa. typhimurium CCARM8009, antibiotics-tolerant; 37° C., 18 hours
Description: as §1, §2

Sa. typhimurium KCTC1926 = type: cell-based, Salmonella typhimurium; conditions: KCTC1926, 18 h
Description: as §1, §2

[3] = system: red blood cells of a rat (Balb/c); conditions: 37° C., 1 hour
Description: In order to compare the cytotoxicity of the peptides prepared by the method of above 1, erythrocyte hemolytic activity of each of the synthesized peptides was measured.
Specifically, red blood cells of a rat (Balb/c, 6 weeks old, female) were diluted with PBS (pH 7.0) to a concentration of 8%, and PEP27, PEP27-1, PEP27-2 and PEP27-5 peptides were used for treatment of the cells at concentrations of 3.13, 6.25, 12.5, 25.01 50.0 and 100.0 μM/well, respectively, followed by reaction at 37° C. for 1 hour. Then, an amount of hemoglobin contained in the supernatant obtained by centrifugation at 1,000×g was determined by measuring the absorbance at a wavelength of 414 nm. As a control which is a standard for the degree of cell destruction, the absorbance of the obtained supernatant was measured after treatment using 1% Triton X-100 (Sigma, USA) and reaction at 37° C. for 1 hour. With reference to 100% erythrocytes hemolysis activity, hemolysis of each peptide was calculated from the measured absorbance using Equation 1 below. Erythrocyte destruction ability (%)=(Absorbance A−Absorbance B)/(Absorbance C−Absorbance B)×100 [Equation 1]
(wherein, absorbance A represents the absorbance of a reaction solution treated with each peptide measured at a wavelength of 414 nm; absorbance B represents the absorbance of a reaction solution treated with PBS measured at a wavelength of 414 nm; and absorbance C represents the absorbance of a reaction solution treated with 1% Triton X-100 measured at a wavelength of 414 nm).

HaCaT and MCF-7 cells = assay: MTT cytotoxicity; type: cell-based, human; conditions: 100 μM, 24 h, MTT, HaCaT and MCF-7 cells
Description: Specifically, Thiazolyl blue tetrazolium bromide (MTT, Merck KGaA) was used to determine the cytotoxicity of PEP27 and its analogs against HaCaT (human keratinocyte […], n=4 per condition) and MCF-7 (human breast adenocarcinoma, n=3 per condition) cells. The cells were cultured in Dulbecco's modified Eagle's medium (DMEM) supplemented with 10 heat-inactivated fetal bovine serum (FBS, Gibco, Grand Island, NY, USA) and 1% penicillin-streptomycin (Gibco) at a density of 2×10^4 cells/well (96-well plate). Peptides were then added at various concentrations and incubated for 24 h at 37° C., after which MTT (final concentration, 0.5 mg/mL) was added to each well and incubated for 4 h. The formazan product was solubilized in DMSO, and the absorbance at 570 nm was measured to […] cytotoxicity. Cells treated with 0.1% Triton X-100 were used as the 100% cytotoxic control sample.

## CC(C)(O/N=C(\C(=O)N[C@@H]1C(=O)N2C(C(=O)[O-])=C(C[n+]3ccccc3)CS[C@H]12)c1csc(N)n1)C(=O)O [Ceftazidime, ceftazidime]
P. aeruginosa 4007
  MIC: 16 µM (≈ 8.75 µg/mL)
P. aeruginosa 4891
  MIC: 16 µM (≈ 8.75 µg/mL)
P. aeruginosa ATCC15692
  MIC: 4 µM (≈ 2.19 µg/mL)
P. aeruginosa ATCC27853
  MIC: 2 µM (≈ 1.09 µg/mL)
S. aureus ATCC25923
  MIC: 16 µM (≈ 8.75 µg/mL)
S. aureus ATCC29213
  MIC: 3 µM (≈ 1.64 µg/mL)
S. aureus CCARM3089
  MIC: 512 µM (≈ 280 µg/mL)
S. aureus CCARM3090
  MIC: 512 µM (≈ 280 µg/mL)
S. aureus CCARM3518
  MIC: 64 µM (≈ 35 µg/mL)
S. aureus MW2
  MIC: 32 µM (≈ 17.5 µg/mL)
S. aureus USA300
  MIC: 32 µM (≈ 17.5 µg/mL)

## C[C@@H](O)[C@H]1C(=O)N2C(C(=O)O)=C(S[C@@H]3CN[C@H](C(=O)N(C)C)C3)[C@H](C)[C@H]12 [Meropenem, meropenem]
P. aeruginosa 4007
  MIC: 4 µM (≈ 1.53 µg/mL)
P. aeruginosa 4891
  MIC: 8 µM (≈ 3.07 µg/mL)
P. aeruginosa ATCC15692
  MIC: 2 µM (≈ 0.767 µg/mL)
P. aeruginosa ATCC27853
  MIC: 2 µM (≈ 0.767 µg/mL)
S. aureus ATCC25923
  MIC: 2 µM (≈ 0.767 µg/mL)
S. aureus ATCC29213
  MIC: 2 µM (≈ 0.767 µg/mL)
S. aureus CCARM3089
  MIC: 64 µM (≈ 24.5 µg/mL)
S. aureus CCARM3090
  MIC: 128 µM (≈ 49.1 µg/mL)
S. aureus CCARM3518
  MIC: 64 µM (≈ 24.5 µg/mL)
S. aureus MW2
  MIC: 2 µM (≈ 0.767 µg/mL)
S. aureus USA300
  MIC: 2 µM (≈ 0.767 µg/mL)

## CSCC[C@H](N)C(=O)N[C@@H](Cc1c[nH]c2ccccc12)C(=O)N[C@@H](CCCCN)C(=O)N[C@@H](Cc1c[nH]c2ccccc12)C(=O)N[C@@H](Cc1ccccc1)C(=O)N[C@@H](Cc1c[nH]cn1)C(=O)N[C@@H](CC(N)=O)C(=O)N[C@H](C(=O)N[C@@H](CC(C)C)C(=O)N[C@@H](CO)C(=O)N[C@@H](CO)C(=O)NCC(=O)N[C@@H](CCC(N)=O)C(=O)N[C@@H](CC(C)C)C(=O)N[C@@H](CC(C)C)C(=O)N[C@@H](C)C(=O)N[C@@H](CC(=O)O)C(=O)N[C@@H](CCCCN)C(=O)N[C@@H](CCCNC(=N)N)C(=O)N1CCC[C@H]1C(=O)N[C@@H](C)C(=O)N[C@@H](CCCNC(=N)N)C(=O)N[C@@H](CC(=O)O)C(=O)N[C@@H](Cc1ccc(O)cc1)C(=O)N[C@@H](CC(N)=O)C(=O)N[C@@H](CCCNC(=N)N)C(=O)N[C@@H](CCCCN)C(N)=O)C(C)C [PEP27-1] (H-MWKWFHNVLSSGQLLADKRPARDYNRK-NH2)
B. subtilis KCTC1998
  Minimal inhibitory concentration: 32 µM (≈ 106 µg/mL)
L. monocytogens KCTC3710
  Minimal inhibitory concentration: 64 µM (≈ 212 µg/mL)
E. coli ATCC25922
  Minimal inhibitory concentration: 64 µM (≈ 212 µg/mL)
E. coli ATCC27325
  Minimal inhibitory concentration: 32 µM (≈ 106 µg/mL)
E. coli CCARM1229
  Minimal inhibitory concentration: 32 µM (≈ 106 µg/mL)
E. coli CCARM1238
  Minimal inhibitory concentration: 32 µM (≈ 106 µg/mL)
P. aeruginosa 4007; 4007, 18 h
  Minimal inhibitory concentration: 32 µM (≈ 106 µg/mL)
P. aeruginosa 4891; 4891, 18 h
  Minimal inhibitory concentration: 32 µM (≈ 106 µg/mL)
P. aeruginosa ATCC15692
  Minimal inhibitory concentration: 32 µM (≈ 106 µg/mL)
P. aeruginosa ATCC27853
  Minimal inhibitory concentration: 32 µM (≈ 106 µg/mL)
S. aureus ATCC25923
  Minimal inhibitory concentration: 32 µM (≈ 106 µg/mL)
S. aureus ATCC29213
  Minimal inhibitory concentration: 32 µM (≈ 106 µg/mL)
S. aureus CCARM3089; S. aureus CCARM3089, antibiotics-tolerant, 37° C., 18 hours
  Minimal inhibitory concentration: 32 µM (≈ 106 µg/mL)
S. aureus CCARM3090; S. aureus CCARM3090, antibiotics-tolerant, 37° C., 18 hours
  Minimal inhibitory concentration: 16 µM (≈ 53.1 µg/mL)
S. aureus CCARM3518; S. aureus CCARM3518, antibiotics-tolerant, 37° C., 18 hours
  Minimal inhibitory concentration: 32 µM (≈ 106 µg/mL)
S. aureus MW2; S. aureus MW2, antibiotics-tolerant, 37° C., 18 hours
  Minimal inhibitory concentration: 32 µM (≈ 106 µg/mL)
S. aureus USA300; S. aureus USA300, antibiotics-tolerant, 37° C., 18 hours
  Minimal inhibitory concentration: 32 µM (≈ 106 µg/mL)
[1]
  Minimal inhibitory concentration: 32 µM (≈ 106 µg/mL)
[2]
  Minimal inhibitory concentration: 32 µM (≈ 106 µg/mL)
Sa. typhimurium KCTC1926
  Minimal inhibitory concentration: 32 µM (≈ 106 µg/mL)
[3]; Peptide concentration 3.13 μM
  Erythrocyte destruction ability: 0%
[3]; Peptide concentration 6.25 μM
  Erythrocyte destruction ability: 1.05%
[3]; Peptide concentration 12.5 μM
  Erythrocyte destruction ability: 1.97%
[3]; Peptide concentration 25 μM
  Erythrocyte destruction ability: 25.75%
[3]; Peptide concentration 50 μM
  Erythrocyte destruction ability: 44.51%
[3]; Peptide concentration 100 μM, 100% = 1% Triton X-100
  Erythrocyte destruction ability: 50.65%
HaCaT and MCF-7 cells
  cell viability: 41%-42%

## CN[C@H](CC(C)C)C(=O)N[C@H]1C(=O)N[C@@H](CC(N)=O)C(=O)N[C@H]2C(=O)N[C@H]3C(=O)N[C@H](C(=O)N[C@H](C(=O)O)c4cc(O)cc(O)c4-c4cc3ccc4O)[C@H](O)c3ccc(c(Cl)c3)Oc3cc2cc(c3O[C@@H]2O[C@H](CO)[C@@H](O)[C@H](O)[C@H]2O[C@H]2C[C@](C)(N)[C@H](O)[C@H](C)O2)Oc2ccc(cc2Cl)[C@H]1O [Vancomycin, vancomycin]
P. aeruginosa 4007
  MIC: 512 µM (≈ 742 µg/mL)
P. aeruginosa 4891
  MIC: 512 µM (≈ 742 µg/mL)
P. aeruginosa ATCC15692
  MIC: 512 µM (≈ 742 µg/mL)
P. aeruginosa ATCC27853
  MIC: 256 µM (≈ 371 µg/mL)
S. aureus ATCC25923
  MIC: 0.25 µM (≈ 0.362 µg/mL)
S. aureus ATCC29213
  MIC: 0.25 µM (≈ 0.362 µg/mL)
S. aureus CCARM3089
  MIC: 0.25 µM (≈ 0.362 µg/mL)
S. aureus CCARM3090
  MIC: 0.5 µM (≈ 0.725 µg/mL)
S. aureus CCARM3518
  MIC: 0.25 µM (≈ 0.362 µg/mL)
S. aureus MW2
  MIC: 0.25 µM (≈ 0.362 µg/mL)
S. aureus USA300
  MIC: 0.25 µM (≈ 0.362 µg/mL)
